ChEMBL document CHEMBL3638739, “Medical composition for treatment or prophylaxis of glaucoma” (2014)

Biological target: Prostaglandin E2 receptor EP2 subtype (Homo sapiens, UniProt P43116)
Test: Binding Assay: Measurement of EP2 receptor binding affinity was carried out according to the method of Abramovitz et al. (Biochimica et Biophysica Acta, 1483, 285 (2000)). […] The membrane fraction was recovered on glass fiber filter paper (GF/B, available from Whatman PLC) using a cell harvester (M30R, available from Brandel Inc.), and after washing with a buffer solution (10 mM MES-KOH (pH 6.0), 10 mM MgCl2), radioactivity was measured with a liquid scintillation analyzer (2000CA, available from Packard).
Assay type: cell membranes
Settings: hek293

Chain of Prostaglandin E2 receptor EP2 subtype (P43116 whole entry): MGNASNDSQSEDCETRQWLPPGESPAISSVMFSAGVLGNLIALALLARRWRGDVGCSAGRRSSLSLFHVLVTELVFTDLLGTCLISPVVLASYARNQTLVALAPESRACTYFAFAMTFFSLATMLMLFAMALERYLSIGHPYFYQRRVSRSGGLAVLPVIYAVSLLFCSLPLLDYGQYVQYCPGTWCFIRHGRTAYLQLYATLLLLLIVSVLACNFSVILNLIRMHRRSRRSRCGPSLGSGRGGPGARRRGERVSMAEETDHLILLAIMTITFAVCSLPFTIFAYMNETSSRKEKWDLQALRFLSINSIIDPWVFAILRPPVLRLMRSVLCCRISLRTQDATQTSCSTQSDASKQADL

Structure (SMILES) | Ki [nM]
COC(=O)c1ccc(CNC(=O)c2[nH]c(-c3cccs3)cc2-c2ccc(F)cc2)nc1 | 3.8
O=C(NO)c1ccc(CNC(=O)c2[nH]c(-c3cccs3)cc2-c2ccc(O)cc2)cc1 | 13
O=C(NO)c1ccc(CNC(=O)c2[nH]c(-c3ccccc3)cc2-c2ccc(F)cc2)o1 | 1.5

Continued by falling Ki, values first:

Ki [nM] | Structure (SMILES)
9.4 | O=C(NO)c1ccc(CNC(=O)c2[nH]c(-c3ccc(O)cc3)cc2-c2ccoc2)cc1
3.1 | COc1ccc(-c2cc(-c3ccccc3)[nH]c2C(=O)Nc2ccc(C(=O)NO)o2)cc1
2.8 | O=C(O)c1[nH]c(-c2ccoc2)cc1-c1ccc(O)cc1
1.1 | O=C(NO)c1ccc(CNC(=O)c2[nH]c(-c3ccoc3)cc2-c2ccc(F)cc2)cc1
